In patent publication US20100119595A1, “Monounsaturated fatty acids and perhydrocyclopentanophenanthrene nucleus combination molecules, and their precursors, and the use of all of these as weight-loss agents” (priority 2001, published 2010):
Marks after values point to notes of the source that are not given here.

Key:
[1] = Dog weight-loss study, 2 hydroxyestrone oleate vs oleoyl-estrone (Example 10); assay type: in vivo; conditions: oral 21 days, 5, 3.33 or 2.5 micromoles/kg vs OE 10 micromoles/kg
Excerpt: Dogs are selected and initial measurements taken. The initial measurements include weight and electrical impedance for each dog as measured by a standard impedance measuring device with electrodes placed between the front and rear paws. The dogs are placed individually in appropriate cages and allowed an ad libitum diet of standard dog chow and water for a 10-day period. Daily measurements include the following: • 1. Weight • 2. Weight of food consumed • 3. Water consumed, both volume and weight
Every other day, the dogs' electrical impedance is measured as an indicator of fat tissue content and loss. The dogs remain confined with out of cage activity or exercise for the duration of the experiment. This initial 10-day period establishes a pattern and average of weight gain, impedance change, and food and water consumption for each dog. […] This assures the dogs will readily accept the bread ball as a drug delivery device. […]
An appropriate volume of either OE or 2HOE is placed into the center of a thick piece of dense sweet bread (non-porous), carefully rolled into a small ball so none of the compound leaks out, and sprinkled on the outer surface with sugar or syrup as determined above. […] Electrical impedance of each dog is measured every other day.

[2] = Human study of estrone eicosenoate as anti-obesity drug (Example 3); assay type: in vivo; conditions: humans, oral capsule every morning, 0.75 or 0.375 micromoles/kg
Method: • 1) The required number of subjects are properly screened to fulfill the necessary qualifications, • 2) appropriate laboratory evaluation are performed, • 3) various aspects of positive drug response in a manner acceptable for drug approval are recorded, • 4) adverse drug effects are documented, and • 5) patients are adequately followed-up.
In this random, double-blind, placebo controlled study, subjects are selected to one of three groups and take a capsule orally every morning containing one of the following: a) sunflower oil (placebo), b) estrone eicosenoate dissolved in sunflower oil at a dose of 0.75 micromoles/kg, or c) estrone eicosenoate dissolved in sunflower oil at a dose of to 0.375 micromoles/kg.
Subjects report weekly for measurements and assessment of any side effects. […]
Different tests are performed at least five different times during each study, namely at the screening of potential participants, at the beginning of the study, weekly during the trials, at the end of the first 4 week period and at the end of the second 4 week treatment period. • 1) SCREENING: Subjects are screened to exclude hypothyroidism, pregnancy, and heart disease. […] Subjects selected to participate in the studies have the following initial measurements: WEIGHT, WAIST to HIP RATIO, HEIGHT, BMI (calculated), BODY FAT % & TOTAL BODY FAT (via bioelectrical impedance method). […]

[3] = Rabbit 10-day oral study: body weight and food consumed (Example 1); conditions: for FINAL WT.: one rabbit; for WT. Δ w/ Rx 10 days: control +0.14
Method: During the first 3 weeks, rabbits were only weighed and allowed to eat. On the fourth week, all rabbits were given 0.05 cc dose of peanut oil.
Five New Zealand white rabbits were obtained and caged in their natural environment (outside) and fed a cafeteria, ad libitum diet of rabbit chow. […] The appropriate weights of OE or EE were diluted in peanut oil to provide concentrations as follows: 1) OE, 2 mg/0.05 cc; 2) EE, 1 mg/0.05 cc; 3) 0.33 mg/0.05 cc; 4) EE, 0.1mg/0.05 cc, 5) EE, 0.03 mg/0.05 cc
For the initial three weeks, the rabbits were given no medicine or oil. Body weight and food consumed were measured daily; establishing a daily average for food consumed and weight change.
Rabbits received the assigned dose for 10 consecutive days. Rabbit weight (kg) and food eaten (grams) were determined daily.

[4] = EE 1 mg/d vs OE 2 mg/d, oral, rabbits

Row | SMILES | weight loss compared with dogs receiving oleoyl-estrone [1] | appetite [2] | weight loss, loss of body fat, and/or decrease of body fat% [2] | FINAL WT. ([3]; EE 0.03 mg/d oral in peanut oil, 10 days, initial wt 4.00 kg) | WT. Δ w/ Rx 10 days ([3]; EE 0.03 mg/d oral, 10 days, pre-Rx 10 day avg. +0.125) | FOOD/DAY AVG. w/ Rx ([3]; EE 0.03 mg/d oral, 10 days, pre-Rx avg 163.6) [grams] | FINAL WT. ([3]; EE 0.2 mg/d oral in peanut oil, 10 days, initial wt 3.50 kg) [kg] | FOOD/DAY AVG. w/ Rx ([3]; EE 0.2 mg/d oral, 10 days, pre-Rx avg 151.1) [grams] | FINAL WT. ([3]; EE 0.33 mg/d oral in peanut oil, 10 days, initial wt 4.09 kg) [kg] | WT. Δ w/ Rx 10 days ([3]; EE 0.33 mg/d oral, 10 days, pre-Rx 10 day avg. +0.139) [kg] | FOOD/DAY AVG. w/ Rx ([3]; EE 0.33 mg/d oral, 10 days, pre-Rx avg 151.6) [grams] | FINAL WT. ([3]; EE 1 mg/d oral in peanut oil, 10 days, initial wt 3.73 kg) [kg] | WT. Δ w/ Rx 10 days ([3]; EE 1 mg/d oral, 10 days, pre-Rx 10 day avg. +0.129) [kg] | FOOD/DAY AVG. w/ Rx ([3]; EE 1 mg/d oral, 10 days, pre-Rx avg 138.3) [grams] | amount of food eaten relative to the OE rabbit [3, 4] | weight loss relative to OE over a 10-day period [3, 4] | weight gained compared with the Control rabbit ([3]; EE at 1/10 the dose of OE (0.2 mg/d), 10 days) | weight gained compared with the control ([3]; EE at lowest dose (0.03 mg/d), 10 days) | weight loss less than that resulting from OE ([3]; EE at ⅙ the dose of OE (0.33 mg/d vs 2 mg/d), 10 days) [%]
1 | CCCCCCCC/C=C\CCCCCCCC(=O)Oc1cc2c(cc1O)[C@H]1CC[C@]3(C)C(=O)CC[C@H]3[C@@H]1CC2 [2HOE, 2 hydroxyestrone oleate] | greater weight loss | – | – | – | – | – | – | – | – | – | – | – | – | – | – | – | – | – | –
2 | CCCCCCCC/C=C\CCCCCCCCCC(=O)Oc1ccc2c(c1)CC[C@@H]1[C@@H]2CC[C@]2(C)C(=O)CC[C@@H]12 [EE, estrone eicosenoate] | – | reduces appetite | produces weight loss | 4.17* kg | +0.17 kg | 158.5 | 3.56 | 131.0 | 4.01 | −0.08 | 150.4 | 3.37 | −0.36 | 31.9 | approximately ⅓ | more than three times the weight loss | less than half the weight gained by the Control rabbit | gained more weight than even the control | 20
